Assay results reported in US10905736B2, “Ezetimibe-associated ApoA-I mimetic peptides showing enhanced synergism” (The Regents of the University of California, priority 2016, dated 2021).
“Also recorded” adds a separate entry of the source.

Assays:
LDLR null mice = test: Plasma hydroxyeicosatetraenoic acid (HETE) levels in LDLR null mice fed Western diet for two weeks; format: in vivo, mouse; conditions: female LDLR null mice age 5-8 months, n=20 per group, WD two weeks, Tg6F 0.06% of diet, Ezetimibe 10 mg/kg/day
Description: The plasma from the mice in FIG. 1 was analyzed for 5-HETE as described (see, e.g., Navab et al. (2012) J. Lipid Res., 53: 437-445).
Female LDLR null mice age 5-8 months (n=20 per group) were fed standard mouse chow (Chow) or a Western diet high in cholesterol and fat (WD) or were fed WD+0.06% by weight of a freeze-dried concentrate of transgenic tomatoes expressing the apoA-I mimetic peptide 6F, which was prepared as previously described (see, e.g., Chattopadhyay et al. (2015) Pharma. Res. Per. 3: e00154; Chattopadhyay et al. (2016) J. Lipid Res. 57: 832-847; PCT Pub. Nos: WO 2013/148214 (PCT/US2013/031037), WO 2015/175968 (PCT/US2015/031134)) (Tg6F), or the mice were fed WD with Ezetimibe added to give a daily dose of 10 mg/kg body weight/day (WD+Ezetimibe), or the mice were fed WD with Tg6F added at 0.06% by weight plus Ezetimibe (each added separately to the diet) to give a daily dose of Ezetimibe of 10 mg/kg body weight; the Tg6F and Ezetimibe were mixed into WD as described previously (Chattopadhyay et al. (2016) J. Lipid. Res. 57: 832-847) (Combined Formulation), or the mice were fed WD to which was added ezetimibe-associated transgenic 6F peptide (Ez-tg6F) at 0.06% Tg6F by weight containing sufficient Ezetimibe to give a daily dose of 10 mg/kg body weight/day that was prepared as described herein. Specifically, the ezetimibe-associated Tg6F peptide (Ez-Tg6F) was made by adding the ezetimibe directly to a solution of ethyl acetate 5% acetic acid that had been incubated overnight at room temperature with freeze-dried tomato powder obtained from transgenic tomatoes expressing the 6F peptide, and which had been removed to a separate vessel as described previously (see, e.g., Chattopadhyay et al. (2015) Pharma. Res. Per. 3: e00154; Chattopadhyay et al. (2016) J. Lipid. Res. 57: 832-847) prior to addition of the ezetimibe. […] After feeding the diets for two weeks, the mice were bled and total plasma cholesterol levels were determined as described (Id.). […]

[1] = tested on: Niemann-Pick C1-like 1 (NPC1L1) protein; conditions: by targeting NPC1L1; cited from earlier work

SMILES: O=C1[C@H](CC[C@H](O)c2ccc(F)cc2)[C@@H](c2ccc(O)cc2)N1c1ccc(F)cc1 [Ezetimibe, (3R,4S)-1-(4-fluorophenyl)-3-[(3S)-3-(4-fluorophenyl)-3-hydroxypropyl]-4-(4-hydroxyphenyl)azetidin-2-one]
- plasma 5-HETE levels (LDLR null mice; FIG. 7-8 / FIG. 17 G-H): equally effective; also recorded: significantly decreased plasma levels of 5-HETE
- plasma 12-HETE levels (LDLR null mice; FIG. 9-10 / FIG. 17 I-J): without effect; also recorded: failed to significantly decrease plasma 12-HETE and 15-HETE levels; also recorded: did not significantly alter plasma 12-HETE or 15-HETE levels
- plasma 15-HETE levels (LDLR null mice; FIG. 11-12 / FIG. 17 K-L): without effect; also recorded: failed to significantly decrease plasma 12-HETE and 15-HETE levels; also recorded: did not significantly alter plasma 12-HETE or 15-HETE levels
- transintestinal cholesterol efflux (TICE) [1]: promotes TICE
